Assay results: patent US12448389B2, “BRM targeting compounds and associated methods of use” (Prelude Therapeutics Incorporated, priority 2020, dated 2025)

Key:
SMARCA4 = target: T1, SMARCA4 (Homo sapiens, UniProt P51532); test: SMARCA4 protein degradation in NCIH520 cells by In Cell Western (ICW); assay type: cell-based; conditions: highest concentration 1 μM; for DC50: H520 cells, overnight incubation (maximum 18 hours), read-out: DC50 (SM4_H520): SMARCA4 degradation potency; for Dmax: NCI-H520, overnight incubation (maximum 18 hours), read-out: Dmax % (SM4_H520): maximum SMARCA4 degradation within the concentrations tested
T1 construct: endogenous in cells; host or cells: NCI-H520 (given as NCIH520 / NCIH1520 / H520)
Method: (§1) Compounds were dissolved in DMSO to make 10 mM stock and 3-fold series dilutions were further conducted keeping the highest concentration 10 μM. NCIH11693 and NCIH1520 cells were maintained in PRMI 1640 medium (Corning Cellgro, Catalog #: 10-040-CV) supplemented with 10% v/v FBS (GE Healthcare, Catalog #: SH30910.03) by splitting 1:3 twice a week.
(§2) SMACRA2 and SMARCA4 Protein Degradation DC50 Values in NCIH1693 and NCIH520 Cells by in Cell Western (ICW) Analysis.
(§3) Cells were trypsinized and 30 thousand cells/well were seeded into 384-well plates and were allowed to grow for 1-2 hours at 37° C. Eight-point, 3-fold serial dilutions of compounds from 0.5 mM stocks were added to the cells (using digital Dispenser D300-Tecan, keeping highest concentration 1 μM and normalizing with DMSO at the highest dispensed volume). Plates were incubated at 37° C. for overnight (maximum 18 hours). Cells incubated with DMSO was used as a vehicle control.
(§4) To perform In Cell Western, medium was removed from all the wells leaving cells attached to the surface. After removing the medium, cells were fixed within the plates with 40 μL of 4% formaldehyde by incubating at room temperature for 30 minutes, and then permeabilized with wash buffer (1×PBS with 0.1% Triton X-100) by washing the plate 5 times with 50 μL/well. Before labeling with primary antibodies, cells were blocked with 30 μL/well of blocking buffer (Licor Odyssey blocking buffer PBS #927-40000) for 30 minutes at room temperature. To measure SMARCA2 or SMARCA4 proteins, cells were labeled with 20 μL/well of anti SMARCA2 or SMACRA4 antibodies (Cell Signaling BRM #11966S 1:800, Cell Signaling BRG #49360S 1:800) diluted in Li-Cor Odyssey blocking buffer-PBS #927-40000, followed by overnight incubation at 4° C.
(§5) The next day, plates were washed 5×5 minutes with 50 μL/well of washing buffer to remove all the excess primary antibody and then 20 μL from a mixture of secondary antibody and fluorescent DNA specific dye (Goat anti rabbit 1:500 IRDye-800CW #92632211, and DRAQ5™ 1:2000-#ab108410) was added to each well. Plates were incubated for 1 hour at room temperature with gentle rocking. Cells were washed 5 times with 50 μL/well wash buffer, followed by one last wash with DI water, followed by 10 mins drying at 37° C. oven before scanning. Plates were scanned using Li-Cor Odyssey CLx imaging system to acquire integrated intensities at 700 nm and 800 nm. SMARCA signals were normalized to total cell count and then these normalized values were used to calculate the percent degradation relative to DMSO control and maximum inhibition. DC50s were calculated by using the GraphPad Prism4 program based on sigmoidal dose response equation ([Inhibitor] vs. normalized response-Variable slope).
(§6) In Table 36, the DC50/Dmax% (SM2_H520) refers to SMARCA2 degradation potency/maximum SMARCA2 degradation within the concentrations in H520 cells and DC50/Dmax% (SM4_H520) refers to SMARCA4 degradation potency/maximum SMARCA4 degradation within the concentrations tested in H520 cells.

SMARCA2 = target: T2, SMARCA2 (Homo sapiens, UniProt P51531); test: SMARCA2 protein degradation in NCIH520 cells by In Cell Western (ICW); assay type: cell-based; conditions: highest concentration 1 μM; for DC50: H520 cells, overnight incubation (maximum 18 hours), read-out: DC50 (SM2_H520): SMARCA2 degradation potency; for Dmax: NCI-H520, overnight incubation (maximum 18 hours), read-out: Dmax % (SM2_H520): maximum SMARCA2 degradation within the concentrations tested
T2 construct: endogenous in cells; host or cells: NCI-H520 (given as NCIH520 / NCIH1520 / H520)
Method: as §1, §2, §3, §4, §5, §6

T1 sequence (P51532 whole entry): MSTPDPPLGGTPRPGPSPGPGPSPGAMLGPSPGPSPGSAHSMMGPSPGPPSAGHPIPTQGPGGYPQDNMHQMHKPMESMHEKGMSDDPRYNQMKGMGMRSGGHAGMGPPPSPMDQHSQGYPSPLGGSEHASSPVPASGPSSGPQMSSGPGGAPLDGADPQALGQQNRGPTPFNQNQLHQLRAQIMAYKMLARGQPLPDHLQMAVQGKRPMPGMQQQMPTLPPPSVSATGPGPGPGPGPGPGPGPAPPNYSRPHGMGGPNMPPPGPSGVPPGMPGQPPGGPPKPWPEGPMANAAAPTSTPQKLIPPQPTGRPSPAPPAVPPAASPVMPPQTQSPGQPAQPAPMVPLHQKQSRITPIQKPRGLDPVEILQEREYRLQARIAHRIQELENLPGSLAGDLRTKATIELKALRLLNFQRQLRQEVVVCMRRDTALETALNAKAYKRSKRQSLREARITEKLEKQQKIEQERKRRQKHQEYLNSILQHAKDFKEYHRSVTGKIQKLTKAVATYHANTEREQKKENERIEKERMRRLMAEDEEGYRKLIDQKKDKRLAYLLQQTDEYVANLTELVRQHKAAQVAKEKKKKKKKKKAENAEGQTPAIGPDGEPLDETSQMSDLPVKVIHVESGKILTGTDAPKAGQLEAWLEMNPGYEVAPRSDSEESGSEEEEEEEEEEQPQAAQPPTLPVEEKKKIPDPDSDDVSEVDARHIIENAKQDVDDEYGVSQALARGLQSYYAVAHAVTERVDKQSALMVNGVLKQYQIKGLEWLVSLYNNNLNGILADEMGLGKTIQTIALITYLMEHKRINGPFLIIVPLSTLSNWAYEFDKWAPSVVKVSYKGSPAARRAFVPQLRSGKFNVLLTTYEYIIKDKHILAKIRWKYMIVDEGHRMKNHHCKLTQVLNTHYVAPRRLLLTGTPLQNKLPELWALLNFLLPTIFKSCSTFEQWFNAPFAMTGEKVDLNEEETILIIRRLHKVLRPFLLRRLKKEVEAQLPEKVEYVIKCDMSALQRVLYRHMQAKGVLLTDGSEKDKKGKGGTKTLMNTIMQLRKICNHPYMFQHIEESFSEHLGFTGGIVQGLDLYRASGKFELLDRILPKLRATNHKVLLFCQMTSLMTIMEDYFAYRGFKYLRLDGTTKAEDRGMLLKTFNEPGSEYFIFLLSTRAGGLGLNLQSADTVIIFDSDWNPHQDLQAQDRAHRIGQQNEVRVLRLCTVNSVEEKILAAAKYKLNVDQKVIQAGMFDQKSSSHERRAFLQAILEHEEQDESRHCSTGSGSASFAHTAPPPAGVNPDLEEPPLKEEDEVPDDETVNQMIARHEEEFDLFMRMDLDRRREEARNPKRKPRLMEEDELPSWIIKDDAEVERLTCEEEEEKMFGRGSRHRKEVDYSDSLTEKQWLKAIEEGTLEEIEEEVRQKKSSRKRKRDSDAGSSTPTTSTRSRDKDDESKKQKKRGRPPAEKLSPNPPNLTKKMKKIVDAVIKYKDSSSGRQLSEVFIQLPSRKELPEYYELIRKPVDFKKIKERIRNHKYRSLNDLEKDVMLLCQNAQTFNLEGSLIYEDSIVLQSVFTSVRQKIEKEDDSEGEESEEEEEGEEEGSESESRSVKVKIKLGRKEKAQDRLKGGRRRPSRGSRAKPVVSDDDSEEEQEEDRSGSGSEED
T2 sequence (P51531 whole entry): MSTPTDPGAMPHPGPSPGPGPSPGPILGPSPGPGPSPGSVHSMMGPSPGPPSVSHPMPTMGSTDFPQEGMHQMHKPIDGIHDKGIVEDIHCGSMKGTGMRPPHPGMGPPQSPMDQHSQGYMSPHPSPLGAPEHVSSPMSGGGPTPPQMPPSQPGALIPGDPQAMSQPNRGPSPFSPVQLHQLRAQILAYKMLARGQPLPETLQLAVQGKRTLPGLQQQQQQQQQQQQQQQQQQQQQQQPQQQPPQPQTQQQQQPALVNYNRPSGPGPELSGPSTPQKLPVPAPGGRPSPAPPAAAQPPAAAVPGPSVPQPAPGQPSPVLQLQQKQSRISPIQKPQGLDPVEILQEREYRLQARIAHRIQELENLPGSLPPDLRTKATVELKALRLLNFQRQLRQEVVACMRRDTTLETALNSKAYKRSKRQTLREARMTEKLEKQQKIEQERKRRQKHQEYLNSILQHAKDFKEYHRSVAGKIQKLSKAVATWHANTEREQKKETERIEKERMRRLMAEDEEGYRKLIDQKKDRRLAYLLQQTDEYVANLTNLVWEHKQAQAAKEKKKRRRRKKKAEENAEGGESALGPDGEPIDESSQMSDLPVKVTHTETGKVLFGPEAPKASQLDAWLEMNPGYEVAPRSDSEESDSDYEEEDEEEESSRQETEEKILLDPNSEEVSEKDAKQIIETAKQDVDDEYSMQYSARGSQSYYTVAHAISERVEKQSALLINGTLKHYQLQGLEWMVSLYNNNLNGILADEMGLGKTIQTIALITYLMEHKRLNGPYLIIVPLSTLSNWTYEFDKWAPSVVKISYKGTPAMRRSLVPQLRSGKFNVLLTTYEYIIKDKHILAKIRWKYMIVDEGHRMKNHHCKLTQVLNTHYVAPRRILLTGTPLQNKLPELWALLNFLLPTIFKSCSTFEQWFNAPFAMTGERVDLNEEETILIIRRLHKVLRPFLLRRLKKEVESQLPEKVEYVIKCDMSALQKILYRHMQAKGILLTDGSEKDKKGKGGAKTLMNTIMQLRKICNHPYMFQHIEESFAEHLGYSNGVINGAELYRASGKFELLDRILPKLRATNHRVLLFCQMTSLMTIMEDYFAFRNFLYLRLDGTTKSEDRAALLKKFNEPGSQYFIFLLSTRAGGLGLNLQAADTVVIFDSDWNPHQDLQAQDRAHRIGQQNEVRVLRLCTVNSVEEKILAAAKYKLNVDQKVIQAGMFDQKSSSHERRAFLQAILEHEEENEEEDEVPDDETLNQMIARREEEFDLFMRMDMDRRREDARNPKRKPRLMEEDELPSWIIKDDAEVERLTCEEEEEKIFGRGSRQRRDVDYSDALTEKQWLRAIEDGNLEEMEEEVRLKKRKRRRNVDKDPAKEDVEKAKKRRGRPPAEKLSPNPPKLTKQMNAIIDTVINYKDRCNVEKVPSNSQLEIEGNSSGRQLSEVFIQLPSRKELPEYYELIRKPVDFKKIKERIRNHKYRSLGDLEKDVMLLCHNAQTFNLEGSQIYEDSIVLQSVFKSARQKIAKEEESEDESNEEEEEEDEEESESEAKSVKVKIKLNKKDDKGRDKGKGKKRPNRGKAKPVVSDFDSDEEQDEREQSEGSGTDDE

Row | Compound | DC50 (SMARCA4) [nM] | Dmax (SMARCA4) [%] | DC50 (SMARCA2) [nM] | Dmax (SMARCA2) [%]
1 | O=C1CCC(n2c3ccc(CCCN4CCC(N5CCC(N6CCN7c8cc(-c9ccccc9O)nnc8NC[C@H]7C6)CC5)CC4)cc3c3cccnc32)C(=O)N1 (stereo partly drawn) [Example 20, 3-(6-(3-(4-((S)-2-(2-hydroxyphenyl)-5,6,6a,7,9,10-hexahydro-8H-pyrazino [1′,2′:4,5]pyrazino[2,3-c]pyridazin-8-yl)-[1,4′-bipiperidin]-1′-yl)propyl)-9H-pyrido[2,3-b]indol-9-yl)piperidine-2,6-dione] | < 100 | > 75 | < 100 | > 75
2 | O=C1CCC(n2c3ccc(CCCN4CCC(N5CCN6c7cc(-c8ccccc8O)nnc7NC[C@H]6C5)CC4)cc3c3cccnc32)C(=O)N1 (stereo partly drawn) [Example 19, 3-(6-(3-(4-((S)-2-(2-hydroxyphenyl)-5,6,6a,7,9,10-hexahydro-8H-pyrazino [1′,2′:4,5]pyrazino[2,3-c]pyridazin-8-yl)piperidin-1-yl)propyl)-9H-pyrido[2,3-b]indol-9-yl) piperidine-2,6-dione] | < 100 | > 75 | < 100 | > 75
3 | O=C1CCC(N2C(=O)c3ccc(N4CCN(CCCN5CCC(N6CCN7c8cc(-c9ccccc9O)nnc8NC[C@H]7C6)CC5)CC4)cc3C2=O)C(=O)N1 (stereo partly drawn) [Example 11, 2-(2,6-Dioxopiperidin-3-yl)-5-(4-(3-(4-((S)-2-(2-hydroxyphenyl)-5,6,6a,7,9,10-hexahydro-8H-pyrazino[1′,2′:4,5]1pyrazino[2,3-c]pyridazin-8-yl)piperidin-1-yl)propyl)piperazin-1-yl) isoindoline-1,3-dione] | < 100 | > 75 | < 100 | > 75
4 | O=C1CCC(N2Cc3cc(CCN4CCC(/C=C/c5cnc(N6CCN7c8cc(-c9ccccc9O)nnc8NC[C@H]7C6)nc5)CC4)ccc3C2=O)C(=O)N1 (stereo partly drawn) [Example 7, 3-(5-(2-(4-((E)-2-(2-((S)-2-(2-hydroxyphenyl)-5,6,6a,7,9,10-hexahydro-8H-pyrazino[1′,2′:4,5]pyrazino[2,3-c]pyridazin-8-yl)pyrimidin-5-yl)vinyl)piperidin-1-yl)ethyl)-1-oxoisoindolin-2-yl)piperidine-2,6-dione] | < 100 | > 75 | < 100 | > 75
5 | O=C1CCC(N2Cc3cc(CCN4CC=C(c5cnc(N6CCN7c8cc(-c9ccccc9O)nnc8NC[C@H]7C6)nc5)CC4)ccc3C2=O)C(=O)N1 (stereo partly drawn) [Example 6, 3-(5-(2-(4-(2-((S)-2-(2-hydroxyphenyl)-5,6,6a,7,9,10-hexahydro-8H-pyrazino[1′,2′:4,5]pyrazino[2,3-c]pyridazin-8-yl)pyrimidin-5-yl)-3,6-dihydropyridin-1(2H)-yl)ethyl)-1-oxoisoindolin-2-yl)piperidine-2,6-dione] | < 100 | > 75 | < 100 | > 75
6 | O=C1CCC(N2C(=O)c3ccc(N4CCC(OCCN5CCC(N6CCN7c8cc(-c9ccccc9O)nnc8NC[C@H]7C6)C5)CC4)cc3C2=O)C(=O)N1 (stereo partly drawn) [Example 15, 2-(2,6-Dioxopiperidin-3-yl)-5-(4-(2-(3-((S)-2-(2-hydroxyphenyl)-5,6,6a,7,9,10-hexahydro-8H-pyrazino[1′,2′:4,5]pyrazino[2,3-c]pyridazin-8-yl)pyrrolidin-1-yl)ethoxy)piperidin-1-yl) isoindoline-1,3-dione] | – | – | < 100 | 50 to 75
7 | O=C1CCC(n2c3ccc(CCCN4CCC(N5CC(N6CCN7c8cc(-c9ccccc9O)nnc8NC[C@H]7C6)C5)CC4)cc3c3cccnc32)C(=O)N1 (stereo partly drawn) [Example 21, 3-(6-(3-(4-(3-((S)-2-(2-hydroxyphenyl)-5,6,6a,7,9,10-hexahydro-8H-pyrazino [1′,2′:4,5]pyrazino[2,3-c]pyridazin-8-yl)azetidin-1-yl)piperidin-1-yl)propyl)-9H-pyrido[2,3-b]indol-9-yl)piperidine-2,6-dione] | < 100 | > 75 | < 100 | > 75
8 | O=C1CCC(N2Cc3cc(CCN4CCC(CCc5cnc(N6CCN7c8cc(-c9ccccc9O)nnc8NC[C@@H]7C6)nc5)CC4)ccc3C2=O)C(=O)N1 (stereo partly drawn) [Example 5, 3-(5-(2-(4-(2-(2-((R)-2-(2-hydroxyphenyl)-5,6,6a,7,9,10-hexahydro-8H-pyrazino[1′,2′:4,5]pyrazino[2,3-c]pyridazin-8-yl)pyrimidin-5-yl)ethyl)piperidin-1-yl)ethyl)-1-oxoisoindolin-2-yl)piperidine-2,6-dione] | < 100 | > 75 | < 100 | > 75

The remaining lines, values ahead:

Row | DC50 (SMARCA4) [nM] | Dmax (SMARCA4) [%] | DC50 (SMARCA2) [nM] | Dmax (SMARCA2) [%] | Compound
9 | < 100 | > 75 | < 100 | > 75 | O=C1CCC(N2Cc3cc(CCCN4CCC(c5cnc(N6CCN7c8cc(-c9ccccc9O)nnc8NC[C@@H]7C6)nc5)CC4)ccc3C2=O)C(=O)N1 (stereo partly drawn) [Example 2, 3-(5-(3-(4-(2-((R)-2-(2-hydroxyphenyl)-5,6,6a,7,9,10-hexahydro-8H-pyrazino[1′,2′:4,5]pyrazino[2,3-c]pyridazin-8-yl)pyrimidin-5-yl)piperidin-1-yl)propyl)-1-oxoisoindolin-2-yl)piperidine-2,6-dione]
10 | < 100 | 50 to 75 | < 100 | > 75 | O=C1CCC(N2C(=O)c3ccc(N4CCC(OCCN5CCC(N6CCN7c8cc(-c9ccccc9O)nnc8NC[C@H]7C6)CC5)CC4)cc3C2=O)C(=O)N1 (stereo partly drawn) [Example 16, 2-(2,6-Dioxopiperidin-3-yl)-5-(4-(2-(4-((S)-2-(2-hydroxyphenyl)-5,6,6a,7,9,10-hexahydro-8H-pyrazino[1′,2′:4,5]pyrazino[2,3-c]pyridazin-8-yl)piperidin-1-yl)ethoxy)piperidin-1-yl) isoindoline-1,3-dione]
11 | < 100 | > 75 | < 100 | > 75 | O=C1CCC(n2c3ccc(CCCN4CCN(CCN5CCN6c7cc(-c8ccccc8O)nnc7NC[C@H]6C5)CC4)cc3c3cccnc32)C(=O)N1 (stereo partly drawn) [Example 22, 3-(6-(3-(4-(2-((S)-2-(2-hydroxyphenyl)-5,6,6a,7,9,10-hexahydro-8H-pyrazino [1′,2′:4,5]pyrazino[2,3-c]pyridazin-8-yl)ethyl)piperazin-1-yl)propyl)-9H-pyrido[2,3-b]indol-9-yl)piperidine-2,6-dione]
12 | < 100 | > 75 | < 100 | > 75 | O=C1CCC(N2Cc3cc(CCN4CCC(OCCN5CCC(N6CCN7c8cc(-c9ccccc9O)nnc8NC[C@H]7C6)CC5)CC4)ccc3C2=O)C(=O)N1 (stereo partly drawn) [Example 8, 3-(5-(2-(4-(2-(4-((S)-2-(2-hydroxyphenyl)-5,6,6a,7,9,10-hexahydro-8H-pyrazino[1′,2′:4,5]pyrazino[2,3-c]pyridazin-8-yl)piperidin-1-yl)ethoxy)piperidin-1-yl)ethyl)-1-oxoisoindolin-2-yl)piperidine-2,6-dione]
13 | – | – | < 100 | > 75 | O=C1CCC(n2c3ccc(CCCN4CCC(c5cnc(O[C@H]6C[C@@H]7CNc8nnc(-c9ccccc9O)cc8N7C6)nc5)CC4)cc3c3cccnc32)C(=O)N1 (stereo partly drawn) [Example 23, 3-(6-(3-(4-(2-(((6aR,8S)-2-(2-hydroxyphenyl)-5,6,6a,7,8,9-hexahydro-pyrrolo[1′,2′:4,5]pyrazino[2,3-c]pyridazin-8-yl)oxy)pyrimidin-5-yl)piperidin-1-yl)propyl)-9H-pyrido[2,3-b]indol-9-yl)piperidine-2,6-dione]
